Like-named read-outs stand apart in the source and are kept apart here. Blank lines part the entries; values can stand above or below the compound they belong to. Where a SMILES comes first, the peptide text is derived from it. [ ]: non-standard residue; d: D form.
Legend:
[1] = test system: bFGF-induced angiogenesis; experiment: CAM assay, growth factor-induced angiogenesis, intravenous application; format: in vivo, chick; conditions: for reducing the number of branch points of new blood vessels: FIG. 26, in decreasing order of inhibition 14, 10, 9, 12, compared to bFGF control and compound 7; for inhibition of formation of new blood vessels induced by bFGF: 250 μg/ml, 18 hours after bFGF treatment, FIG. 12; for anti-angiogenic properties (branch points): FIG. 27, 100 μg/embryo, compared to bFGF control and compound 16
Method: J. Pathol., 79:597 (1975). CAMs were prepared from chick embryos for subsequent induction of angiogenesis and inhibition thereof as described in Examples 4 and 5, respectively. Ten day old chick embryos were obtained from McIntyre Poultry (Lakeside, Calif.) and incubated at 37° C. with 60% humidity. A small hole was made through the shell at the end of the egg directly over the air sac with the use of a small crafts drill (Dremel, Division of Emerson Electric Co. Racine Wis.). A second hole was drilled on the broad side of the egg in a region devoid of embryonic blood vessels determined previously by candling the egg. […] A 1.0 centimeter (cm)×1.0 cm square window was cut through the shell over the dropped CAM with the use of a small model grinding wheel (Dremel). The small window allowed direct access to the underlying CAM.
Angiogenesis was induced by placing a 5 millimeter (mm)×5 mm Whatman filter disk (Whatman Filter paper No.1) saturated with Hanks Balanced Salt Solution (HBSS, GIBCO, Grand Island, N.Y.) or HBSS containing 150 nanograms/milliliter (ng/ml) recombinant basic fibroblast growth factor (bFGF) (Genzyme, Cambridge, Mass.) on the CAM of a 10-day chick embryo in a region devoid of blood vessels and the windows were latter sealed with tape. In other assays, 125 ng/ml bFGF was also effective at inducing blood vessel growth. For assays where inhibition of angiogenesis ws evaluated with intravenous injections of antagonists, angiogenesis was first induced with 1-2 μg/ml bFGF in fibroblast growth medium. Angiogenesis was monitored by photomicroscopy after 72 hours. CAMs were snap frozen, and 6 um cryostat sections were fixed with acetone and stained by immunofluorescence as described in Example 3C with 10 μg/ml of either anti-β1 monoclonal antibody CSAT or LM609.
For CAM preparations in which angiogenesis was induced with 1-2 μg/ml bFGF as previously described, synthetic peptides 69601 (control) and 66203 (SEQ ID NO: 5) were separately intravenously injected into CAM preparations 18 hours after bFGF induction of angiogenesis. The preparations were maintained for an additional 36-40 hours after which time the number of branch points were determined as previously described.
In other assays, peptide 85189 (SEQ ID NO: 15) was evaluated for inhibiting bFGF-induced angiogenesis in the CAM assay over a dosage range of 10 μg/embryo to 300 μg/embryo. The assay was performed as previously described.
In still further assays, peptide 85189 was compared to peptides 69601 and 66203 for anti-angiogenesis activity. The assay was performed as described above with the exception that 50 μg peptide were used.
The effectiveness of the different salt formulations of peptide 85189 was also evaluated in similar bFGF-induced CAM assays. The peptides were used at 100 μg/embryo. […] Untreated CAMs, labeled as “no cytokine” had approximately […] as many branch points as that seen with bFGF treatment, respectively 70 versus 190.
With the above-described protocol, the effect of MMP-2 fusion proteins, CTMMP-2(2-4), also referred to as CTMMP-2(445-467) and CTMMP-2(10-1), also referred to as CTMMP-2(274-637) was also evaluated. The assay was performed as previously described with the exception that 50 μg of fusion protein was administered to the bFGF-treated embryos. The effect of fusion protein treatment was assessed at 24 hours, 48 hours and 72 hours.
The 10 day old CAM preparation was used as previously described in Example 5A. Twenty-four hours after bFGF-induced angiogenesis was initiated, the organic peptidomimetics referred to as compounds 16 (81218), 17 (87292) and 18 (87293) were separately intravenously injected into the CAM preparation in a volume of 100 μl at a concentration of 1 mg/ml (100 μg/embryo) in 20% tetraglycol-PBS at pH 7.0. In parallel assays, compounds 7 (96112), 9 (99799), 10 (96229), 12 (112854) and 14 (96113) were similarly evaluated. […]

[2] = target: T1, αIIbβ3 (Homo sapiens, UniProt P05106+P08514); experiment: Ligand-receptor binding assay, immobilized αIIbβ3
T1 construct: selected purified integrins were separately immobilized in Titertek microtiter wells
T1 sequence (P08514 32-887 limits assumed): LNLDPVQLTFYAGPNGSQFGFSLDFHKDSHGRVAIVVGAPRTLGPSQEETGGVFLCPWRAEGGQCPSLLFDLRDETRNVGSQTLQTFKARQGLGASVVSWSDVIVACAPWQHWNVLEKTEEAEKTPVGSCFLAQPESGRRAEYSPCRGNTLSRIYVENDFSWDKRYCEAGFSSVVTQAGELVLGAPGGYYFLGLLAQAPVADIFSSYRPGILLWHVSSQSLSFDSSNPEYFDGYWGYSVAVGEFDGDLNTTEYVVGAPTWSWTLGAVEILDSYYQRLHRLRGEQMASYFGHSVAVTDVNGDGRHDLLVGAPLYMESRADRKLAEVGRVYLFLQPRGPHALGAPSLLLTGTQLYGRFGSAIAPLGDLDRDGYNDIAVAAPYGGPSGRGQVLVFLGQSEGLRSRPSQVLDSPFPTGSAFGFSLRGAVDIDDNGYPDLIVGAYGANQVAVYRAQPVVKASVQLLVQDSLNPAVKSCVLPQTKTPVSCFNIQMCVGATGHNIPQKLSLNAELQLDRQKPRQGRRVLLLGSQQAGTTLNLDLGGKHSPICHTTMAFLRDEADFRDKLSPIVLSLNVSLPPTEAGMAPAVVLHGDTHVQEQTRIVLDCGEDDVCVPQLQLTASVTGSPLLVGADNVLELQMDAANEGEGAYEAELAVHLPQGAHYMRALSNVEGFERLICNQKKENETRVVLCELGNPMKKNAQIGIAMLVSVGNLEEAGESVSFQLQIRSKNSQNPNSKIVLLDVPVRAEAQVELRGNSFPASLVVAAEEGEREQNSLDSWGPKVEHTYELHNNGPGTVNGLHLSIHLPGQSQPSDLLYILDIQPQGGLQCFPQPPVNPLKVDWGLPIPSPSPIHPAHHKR
T1 sequence (P08514 891-1039 partner limits assumed): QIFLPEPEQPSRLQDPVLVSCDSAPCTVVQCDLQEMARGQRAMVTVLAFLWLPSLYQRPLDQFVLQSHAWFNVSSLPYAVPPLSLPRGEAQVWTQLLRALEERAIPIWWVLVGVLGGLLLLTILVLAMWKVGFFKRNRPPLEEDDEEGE
T1 sequence (P05106 27-788): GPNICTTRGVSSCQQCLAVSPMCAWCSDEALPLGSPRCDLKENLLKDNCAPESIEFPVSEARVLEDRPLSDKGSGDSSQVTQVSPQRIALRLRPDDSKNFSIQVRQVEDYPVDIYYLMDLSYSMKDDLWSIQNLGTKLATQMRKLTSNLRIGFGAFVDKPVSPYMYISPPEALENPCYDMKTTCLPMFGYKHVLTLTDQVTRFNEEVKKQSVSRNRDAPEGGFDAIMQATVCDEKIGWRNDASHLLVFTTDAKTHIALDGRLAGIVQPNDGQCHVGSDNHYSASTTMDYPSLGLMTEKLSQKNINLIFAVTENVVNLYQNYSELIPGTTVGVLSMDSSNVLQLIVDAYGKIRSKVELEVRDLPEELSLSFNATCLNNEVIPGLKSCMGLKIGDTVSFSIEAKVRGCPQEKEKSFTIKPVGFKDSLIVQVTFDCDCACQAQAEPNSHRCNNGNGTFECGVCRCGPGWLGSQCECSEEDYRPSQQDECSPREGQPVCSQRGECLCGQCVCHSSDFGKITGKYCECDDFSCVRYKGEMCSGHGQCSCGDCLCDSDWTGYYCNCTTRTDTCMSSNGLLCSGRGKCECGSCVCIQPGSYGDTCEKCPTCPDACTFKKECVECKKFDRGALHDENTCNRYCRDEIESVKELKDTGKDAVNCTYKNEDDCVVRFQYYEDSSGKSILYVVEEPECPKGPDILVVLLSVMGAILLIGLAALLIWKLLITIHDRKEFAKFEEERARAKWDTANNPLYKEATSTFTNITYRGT
Source text: (§1) Herein described is a method of identifying antagonists in a ligand-receptor binding assay in which the receptor is immobilized to a solid support and the ligand and antagonist are soluble. Also described is a ligand-receptor binding assay in which the ligand is immobilized to a solid support and the receptor and antagonists are soluble.
(§2) Briefly, selected purified integrins were separately immobilized in Titertek microtiter wells at a coating concentration of 50 nanograms (ng) per well. The purification of the receptors used in the ligand-receptor binding assays are well known in the art and are readily obtainable with methods familiar to one of ordinary skill in the art. After incubation for 18 hours at 4° C., nonspecific binding sites on the plate were blocked with 10 milligrams/milliliter (mg/ml) of bovine serum albumin (BSA) in Tris-buffered saline. […] Radiolabeled ligands were used at concentrations of 1 nM and binding was challenged separately with unlabeled synthetic peptides.
(§3) Following a three hour incubation, free ligand was removed by washing and bound ligand was detected by gamma counting. […] The IC50 data in micromoles (IC50 μM) are expressed as the average of duplicate data points±the standard deviation as shown in Table 2.

[3] = target: T2, αvβ3 (Homo sapiens, UniProt P05106+P06756); experiment: Ligand-receptor binding assay, immobilized αvβ3; conditions: for preference of inhibition of fibrinogen binding, αvβ3 versus αIIbβ3: comparison of half-maximal concentrations of Table 2
T2 construct: selected purified integrins were separately immobilized in Titertek microtiter wells
T2 sequence (P06756 31-889 limits assumed): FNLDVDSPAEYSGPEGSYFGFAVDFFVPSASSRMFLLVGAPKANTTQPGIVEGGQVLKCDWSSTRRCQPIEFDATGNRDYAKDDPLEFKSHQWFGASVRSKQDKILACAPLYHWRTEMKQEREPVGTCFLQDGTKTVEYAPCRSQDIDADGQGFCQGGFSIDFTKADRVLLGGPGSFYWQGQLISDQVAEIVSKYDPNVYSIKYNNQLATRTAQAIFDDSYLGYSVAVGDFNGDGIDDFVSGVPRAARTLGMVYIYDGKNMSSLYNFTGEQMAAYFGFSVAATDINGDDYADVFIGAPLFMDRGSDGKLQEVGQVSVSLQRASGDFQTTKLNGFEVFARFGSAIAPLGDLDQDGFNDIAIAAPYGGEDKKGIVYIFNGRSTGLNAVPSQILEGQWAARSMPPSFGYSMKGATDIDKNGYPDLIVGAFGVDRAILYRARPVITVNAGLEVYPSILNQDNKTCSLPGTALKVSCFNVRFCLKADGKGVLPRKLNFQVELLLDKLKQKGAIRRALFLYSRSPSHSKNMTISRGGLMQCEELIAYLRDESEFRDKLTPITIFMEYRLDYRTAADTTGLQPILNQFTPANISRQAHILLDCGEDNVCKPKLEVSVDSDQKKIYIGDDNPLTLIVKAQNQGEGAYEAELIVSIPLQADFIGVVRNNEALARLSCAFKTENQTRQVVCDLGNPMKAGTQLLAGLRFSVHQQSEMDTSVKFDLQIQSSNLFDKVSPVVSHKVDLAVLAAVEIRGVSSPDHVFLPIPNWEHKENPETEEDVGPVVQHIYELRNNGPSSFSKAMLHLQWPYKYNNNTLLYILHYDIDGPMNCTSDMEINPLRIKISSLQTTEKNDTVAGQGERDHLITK
T2 sequence (P06756 891-1048 partner limits assumed): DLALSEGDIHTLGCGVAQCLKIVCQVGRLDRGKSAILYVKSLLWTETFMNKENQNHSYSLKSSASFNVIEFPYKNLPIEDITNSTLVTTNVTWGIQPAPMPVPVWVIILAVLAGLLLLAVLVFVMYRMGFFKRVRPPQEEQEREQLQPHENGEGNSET
T2 sequence (P05106 27-788): as the sequence (P05106 27-788) above
Source text: as §1, §2, §3

[4] = radiolabeled fibrinogen, average of duplicate data points ± standard deviation, read-out: αIIbβ3 (IC50 μM)
[5] = radiolabeled fibrinogen, average of duplicate data points ± standard deviation, read-out: αvβ3 (IC50 μM)

Compound: CC(C)(C)OC(=O)N[C@@H](Cc1ccc(OCCCCNC(=N)N)cc1)C(=O)O [Compound 9]
reducing the number of branch points of new blood vessels [1]: effective at reducing the number of branch points

Compound: CC1(C)C2CCC1(CS(=O)(=O)N[C@@H](Cc1ccc(OCCCCNC(=N)N)cc1)C(=O)O)C(=O)C2 (some centres unmarked) [Compound 12]
reducing the number of branch points of new blood vessels [1]: effective at reducing the number of branch points

Compound: CCCCS(=O)(=O)N[C@@H](Cc1ccc(OCCCCCNC(=N)N)cc1)C(=O)O [Compound 14]
inhibition of formation of new blood vessels induced by bFGF [1]: almost completely inhibited
reducing the number of branch points of new blood vessels [1]: effective at reducing the number of branch points

Compound: CCCS(=O)(=O)NC(Cc1ccc(OCC2CN(c3ccc(C(=N)N)cc3)C(=O)O2)cc1)C(=O)O (centres unmarked) [Compound 17, 3-(4-amidinophenyl)-5-(4-(2-carboxy-2-N-propyl-sulfonylaminoethyl)phenoxy)methyl-2-oxazolidinone]
anti-angiogenic properties (branch points) [1]: exhibited anti-angiogenic properties

Compound: CCS(=O)(=O)NC(Cc1ccc(OCC2CN(c3ccc(C(=N)N)cc3)C(=O)O2)cc1)C(=O)O (centres unmarked) [Compound 18, 3-(4-amidinophenyl)-5-(4-(2-carboxy-2-N-ethyl-sulfonylaminoethyl)phenoxy)methyl-2-oxazolidinone]
anti-angiogenic properties (branch points) [1]: exhibited anti-angiogenic properties

Compound: CC(C)[C@@H]1NC(=O)[C@@H](Cc2ccccc2)NC(=O)[C@H](CC(=O)O)NC(=O)[C@H](C)NC(=O)[C@H](CCCNC(=N)N)NC1=O [Peptide 62185, cyclo (RADfV)] (cyclo(RAD[dF]V))
preference of inhibition of fibrinogen binding, αvβ3 versus αIIbβ3 [3]: preferential inhibition of fibrinogen binding to the αvβ3 receptor

Compound: CSCC[C@H](NC(=O)[C@@H]1CCCN1C(=O)[C@H](CC(N)=O)NC(=O)CNC(=O)[C@H](CC(C)C)NC(=O)[C@H](CC(=O)O)NC(=O)[C@H](CS)NC(=O)[C@@H](NC(=O)[C@@H](NC(=O)[C@H](CCC(N)=O)NC(=O)[C@H](CCCNC(=N)N)NC(=O)[C@@H](N)[C@@H](C)O)C(C)C)C(C)C)C(=O)O [Peptide 62411] (H-TRQVVCDLGNPM-OH)
IC50 [2]: > 100 µM
IC50 ([2]; read-out: αIIbβ3 IC50 (μM) VN, vitronectin, individual assay): > 100 µM
IC50 [3]: > 100 µM

The next lines start with results.

melting point: 165 °C (dec.)
Compound: Cl.Cl.N=C(N)c1ccc(N2CC(COc3ccc(CC(N)C(=O)O)cc3)OC2=O)cc1 (centres unmarked)

melting point: 70 °C
Compound: CCCCS(=O)(=O)N[C@@H](Cc1ccc(OCCCCNC(=N)N)cc1)C(=O)O [Compound 7]

melting point: 70 °C
Compound: CCCCS(=O)(=O)N[C@H](Cc1ccc(OCCCCNC(=N)N)cc1)C(=O)O [Compound 10]
inhibition of formation of new blood vessels induced by bFGF [1]: almost completely inhibited
reducing the number of branch points of new blood vessels [1]: effective at reducing the number of branch points

IC50 [2, 4]: 0.63 ± 0.18 µM
IC50 [3, 5]: 1.05 ± 0.07 µM
Compound: CC(C)C[C@@H]1NC(=O)[C@@H](Cc2ccccc2)NC(=O)[C@H](CC(=O)O)NC(=O)CNC(=O)[C@H](CCCNC(=N)N)NC(=O)[C@H](C)NC1=O [Peptide 62175, cyclo (ARGDfL)] (cyclo(ARGD[dF]L))
preference of inhibition of fibrinogen binding, αvβ3 versus αIIbβ3 [3]: either not as effective in blocking fibrinogen binding to αvβ3 or exhibited preferential inhibition of fibrinogen binding to αIIbβ3

IC50 [2, 4]: 0.055 ± 0.007 µM
IC50 [3, 5]: 0.395 ± 0.21 µM
Compound: CC(C)C[C@@H]1NC(=O)[C@@H](Cc2ccccc2)NC(=O)[C@H](CC(=O)O)NC(=O)CNC(=O)[C@H](CCCNC(=N)N)NC(=O)CNC1=O [Peptide 62179, cyclo (GRGDfL)] (cyclo(GRGD[dF]L))
preference of inhibition of fibrinogen binding, αvβ3 versus αIIbβ3 [3]: either not as effective in blocking fibrinogen binding to αvβ3 or exhibited preferential inhibition of fibrinogen binding to αIIbβ3

IC50 [2, 4]: 15 ± 7.84 µM
IC50 [3, 5]: 1.96 ± 0.62 µM
Compound: CC(C)[C@@H]1NC(=O)[C@H](Cc2ccccc2)NC(=O)[C@H](CC(=O)O)NC(=O)CNC(=O)[C@@H](CCCNC(=N)N)NC(=O)CNC1=O [Peptide 62181, cyclo (GrGDFV)] (cyclo(G[dR]GDFV))
preference of inhibition of fibrinogen binding, αvβ3 versus αIIbβ3 [3]: preferential inhibition of fibrinogen binding to the αvβ3 receptor

IC50 [2, 4]: 100 ± 0.001 µM
IC50 [3, 5]: 0.885 ± 0.16 µM
Compound: CC(C)[C@@H]1NC(=O)[C@@H](Cc2ccccc2)NC(=O)[C@H](CC(=O)O)NC(=O)[C@H](C)NC(=O)[C@H](CCCN=C(N)N)NC1=O [Peptide 62185, cyclo (RADfV)] (cyclo(AD[dF]VR))

IC50 ([2]; fibrinogen, individual assay, read-out: αIIbβ3 IC50 (μM) FG): > 100 µM
IC50 ([2]; vitronectin, individual assay, read-out: αIIbβ3 IC50 (μM) VN): > 100 µM
IC50 ([3]; fibrinogen, individual assay, read-out: αvβ3 IC50 (μM) FG): > 100 µM
Compound: CC(C)C[C@H](NC(=O)[C@H](C)NC(=O)[C@H](CCC(=O)O)NC(=O)[C@H](CC(N)=O)NC(=O)[C@H](CC(N)=O)NC(=O)[C@H](CCCNC(=N)N)NC(=O)[C@@H](NC(=O)[C@@H](NC(=O)CN)C(C)C)C(C)C)C(=O)N[C@@H](C)C(=O)N[C@@H](CCCNC(=N)N)C(=O)N[C@@H](CC(C)C)C(=O)N[C@@H](CO)C(=O)O [Peptide 62503] (H-GVVRNNEALARLS-OH)

— patent US20040063790A1, “Methods for inhibition of angiogenesis” (The Scripps Research Institute, priority 1996, published 2004)
